Patent US20180105548A1, “A novel compound (KS-513) isolated from Pseudolysimachion rotundum var. subintegrum, the composition comprising the same preventing or treating allergic disease, inflammatory disease, asthma or chronic obstructive pulmonary disease and the use thereof” (priority 2015, published 2018)

Columns and labels:
[1] = Cytotoxicity test (CCK-8) in RAW264.7 cell; type: cell-based, mouse; details: mouse, RAW264.7 macrophage cells
Description: (§1) RAW264.7 cell (TIB-71, ATCC), a mouse macrophage cell, was suspended in 5% FBS (Fetal Bovine Serum)-supplemented DMEM (Dulbecco's Modified Eagle Medium, Gibco) medium in a concentration of 1×10^5 cells/ml, and 100 μL of the suspension was inoculated into 96 well plates to adhere cell to the plate for 4 hours. Various concentrations of test sample (KS 513 compound) were treated therewith and cultured for 24 hours. 10 μL of CCK-8 solution was mixed therewith according to the manufacture's manual kit (Dojindo Co. Ltd), reacted from 30 mins to 4 hours, and the absorbance of the solution was determined at […]. The cell viability was calculated according to following Math formulae 1 based on negative control group treated with 0.2% DMSO and the result was shown in Table 2.
(§2) Cell viability (%)=OD 570 nm (test group)/OD 570 nm (negative control group)×100 Math formulae 1

[2] = tested on: RAW264.7 cell; assay: Cytotoxicity test (CCK-8) in RAW264.7 cell; type: cell-based, mouse; details: up to 80 μM
Description: as §1, §2

[3] = tested on: iNOS; assay: mRNA expression of iNOS in RAW264.7 cell line induced by LPS (real-time PCR); type: cell-based, mouse; details: for iNOS mRNA expression, Fold (value compared with a negative group) / iNOS mRNA expression, Inhibition ratio (IR) compared with LPS treatment group: LPS 1 μg/ml, 12 hours
Description: (§3) In order to determine the inhibitory effect on the mRNA expression of pro-inflammatory medicated enzyme such as iNOS or COX-2, and pro-inflammatory medicated cytokines such as IL-1beta, IL-6, TNF-alpha in RAW264.7 cell line induced by LPS, following test using by real-time PCR (real-time polymerase chain reaction, quantitative real time polymerase chain reaction, qPCR) was performed according to the method disclosed in the literature (Livak, K. J., Schimittgen T. D., 2001, Analysis of relative gene expression data using real-time quantitiative PCR and the 2 (-Delta Delta C(T) method, Methods 25, p 402-408):
(§4) RAW264.7 cell was inoculated into 6-well-plates in the concentration of 1×10^6 cell/well to incubate for 12 hours. Various concentration of KS-513 compound (2.5, 5, 10 and 20 μM) was pre-treated therewith and 1 μg/mL of LPS (L6529, Sigma) was added thereto to incubate for 12 hours.
(§5) To extract total RNA, RNA was extracted using by Triazol B (invitrogen) and cDNA was synthesized using by Omniscript RT kit (205113, Qiagen, Gmbh, Hilden, Germany) after the quantification. The synthesized cDNA was mixed with its template and the primers shown in Table 3 (SEQ.I.D. 1-14), performed to denaturation at 94° C. for 5 mins using by PCR mix (PCR master Mix, Bioneer, Korea), and reacted as follows: 1 cycle for pre-denaturation; at 95° C. for 30 sec, 60° C. for 45 sec, 72° C. for 45 sec, 30 cycles for denaturation; 10 mins at 72° C., 1cycle for final extension. (FIG. 2)

[4] = tested on: TNF-alpha; assay: mRNA expression of TNF-alpha in RAW264.7 cell line induced by LPS (real-time PCR); type: cell-based, mouse; details: for TNF-alpha mRNA expression, Fold (value compared with a negative group) / TNF-alpha mRNA expression, Inhibition ratio (IR) compared with LPS treatment group: LPS 1 μg/ml, 12 hours
Description: as §3, §4, §5

[5] = tested on: IL-1beta; assay: mRNA expression of IL-1beta in RAW264.7 cell line induced by LPS (real-time PCR); type: cell-based, mouse; details: for IL-1beta mRNA expression, Fold (value compared with a negative group) / IL-1beta mRNA expression, Inhibition ratio (IR) compared with LPS treatment group: LPS 1 μg/ml, 12 hours
Description: as §3, §4, §5

[6] = tested on: IL-6; assay: IL-6 production in LPS-treated RAW264.7 cell (ELISA); type: cell-based, mouse; details: for IL-6 production (relative % comparing with LPS treatment group) / IL-6 production, Inhibitory ratio (%): LPS 1 μg/mL, 24 hours
Description: (§6) RAW264.7 cell was inoculated into 96 well plates in the concentration of 1×10^5 cell/well to incubate for 18 hours. Various concentration of KS-513 compound (2.5, 5, 10 and 20 μM) was pre-treated therewith and 1 μg/mL of LPS (L6529, Sigma) was added thereto to incubate for 24 hours. The level of inflammatory cytokines such as IL-1beta, IL-6, TNF-alpha etc in the cell medium was determined by ELISA kit (IL-1beta:559603, IL-6:555240, TNF-alpha:5558534, BD) and the result was shown in FIG. 5 and Table 7-9.

[7] = tested on: TNF-alpha; assay: TNF-alpha production in LPS-treated RAW264.7 cell (ELISA); type: cell-based, mouse; details: for TNF-alpha production (relative % comparing with LPS treatment group) / TNF-alpha production, Inhibitory ratio (%): LPS 1 μg/mL, 24 hours
Description: as §6

[8] = tested on: IL-1beta; assay: IL-1beta production in LPS-treated RAW264.7 cell (ELISA); type: cell-based, mouse; details: for IL-1beta production (relative % comparing with LPS treatment group) / IL-1beta production, Inhibitory ratio (%): LPS 1 μg/mL, 24 hours
Description: as §6

[9] = Acute toxicity test of oral administration in rat; details: Sprague-Dawley, in vivo
Description: The acute toxicity test was performed by administrating inventive compound to 6-weeks aged SPF Sprague-Dawley rats.
After administrating the extract or compounds, all the clinical changes i.e., mortality, clinical signs, body weight changes was observed and blood test such as haematological test and hematological biochemistry test was performed. The abnormal changes of abdominal organ and thoracic organ were observed after autopsy.

[10] = various concentration, compared with control group treated with LPS (100%)
[11] = vs LPS treatment group (1 μg/ml), FIG. 5

CO[C@@H]1C[C@H]2[C@H](OC(=O)c3ccc(O)cc3)[C@@H]3O[C@]3(CO)[C@H]2[C@H](O[C@@H]2O[C@H](CO)[C@@H](O)C(O)[C@H]2O)O1 (stereo partly drawn) [KS-513, (1aS, 1bS,2S,4S,5aR,6S,6aS)-1a-(hydroxymethyl)-4-methoxy-2-(((2S,3R,5S,6R)-3,4,5-trihydroxy-6-(hydroxymethyl)tetrahydro-2H-pyran-2-yl)oxy)octahydrooxireno[2′,3′:4,5]cyclopenta[1,2-c]pyran-6-yl 4-hydroxybenzoate]
viability at 24 h, 2.5 µM ([1]; 2.5 μM, 24 hours, vs negative control 0.2% DMSO, read-out: RAW264.7 cell viability (%, mean ± variation)): 99.6 ± 3.66%
viability at 24 h, 5 µM ([1]; 5 μM, 24 hours, vs negative control 0.2% DMSO, read-out: RAW264.7 cell viability (%, mean ± variation)): 99.3 ± 5.68%
viability at 24 h, 10 µM ([1]; 10 μM, 24 hours, vs negative control 0.2% DMSO, read-out: RAW264.7 cell viability (%, mean ± variation)): 98.2 ± 3.28%
viability at 24 h, 20 µM ([1]; 20 μM, 24 hours, vs negative control 0.2% DMSO, read-out: RAW264.7 cell viability (%, mean ± variation)): 94.7 ± 3.03%
viability at 24 h, 40 µM ([1]; 40 μM, 24 hours, vs negative control 0.2% DMSO, read-out: RAW264.7 cell viability (%, mean ± variation)): 97.2 ± 7%
viability at 24 h, 80 µM ([1]; 80 μM, 24 hours, vs negative control 0.2% DMSO, read-out: RAW264.7 cell viability (%, mean ± variation)): 95.1 ± 2.73%
viability at 24 h ([1]; at less than 80 μM): > 95%
cytotoxicity in RAW264.7 cell [2]: did not show cytotoxicity
iNOS mRNA expression, Fold (value compared with a negative group) ([3]; 2.5 μM): 7.25 ± 2.51 Fold
iNOS mRNA expression, Inhibition ratio (IR) compared with LPS treatment group ([3]; 2.5 μM): 18.41%
iNOS mRNA expression, Fold (value compared with a negative group) ([3]; 5 μM): 5.94 ± 2.91 Fold
iNOS mRNA expression, Inhibition ratio (IR) compared with LPS treatment group ([3]; 5 μM): 33.09%
iNOS mRNA expression, Fold (value compared with a negative group) ([3]; 10 μM): 2.48 ± 0.19 Fold
iNOS mRNA expression, Inhibition ratio (IR) compared with LPS treatment group ([3]; 10 μM): 72.12%
iNOS mRNA expression, Fold (value compared with a negative group) ([3]; 20 μM): 1.32 ± 0.47 Fold
iNOS mRNA expression, Inhibition ratio (IR) compared with LPS treatment group ([3]; 20 μM): 85.19%
expressed level of mRNA of iNOS [3, 10]: significantly decreased in a dose dependent manner
TNF-alpha mRNA expression, Fold (value compared with a negative group) ([4]; 2.5 μM): 9.60 ± 3.33 Fold
TNF-alpha mRNA expression, Inhibition ratio (IR) compared with LPS treatment group ([4]; 2.5 μM): 14.34%
TNF-alpha mRNA expression, Fold (value compared with a negative group) ([4]; 5 μM): 5.34 ± 3.27 Fold
TNF-alpha mRNA expression, Inhibition ratio (IR) compared with LPS treatment group ([4]; 5 μM): 52.39%
TNF-alpha mRNA expression, Fold (value compared with a negative group) ([4]; 10 μM): 2.72 ± 0.99 Fold
TNF-alpha mRNA expression, Inhibition ratio (IR) compared with LPS treatment group ([4]; 10 μM): 75.69%
TNF-alpha mRNA expression, Fold (value compared with a negative group) ([4]; 20 μM): 1.49 ± 0.77 Fold
TNF-alpha mRNA expression, Inhibition ratio (IR) compared with LPS treatment group ([4]; 20 μM): 86.70%
expressed level of mRNA of TNF-alpha [4, 10]: significantly decreased in a dose dependent manner
IL-1beta mRNA expression, Fold (value compared with a negative group) ([5]; 2.5 μM): 10.41 ± 1.09 Fold
IL-1beta mRNA expression, Inhibition ratio (IR) compared with LPS treatment group ([5]; 2.5 μM): 37.69%
IL-1beta mRNA expression, Fold (value compared with a negative group) ([5]; 5 μM): 5.72 ± 0.24 Fold
IL-1beta mRNA expression, Inhibition ratio (IR) compared with LPS treatment group ([5]; 5 μM): 65.75%
IL-1beta mRNA expression, Fold (value compared with a negative group) ([5]; 10 μM): 2.56 ± 0.14 Fold
IL-1beta mRNA expression, Inhibition ratio (IR) compared with LPS treatment group ([5]; 10 μM): 84.68%
IL-1beta mRNA expression, Fold (value compared with a negative group) ([5]; 20 μM): 1.70 ± 0.59 Fold
IL-1beta mRNA expression, Inhibition ratio (IR) compared with LPS treatment group ([5]; 20 μM): 89.85%
expressed level of mRNA of IL-1beta [5, 10]: significantly decreased in a dose dependent manner
IL-6 production (relative % comparing with LPS treatment group) ([6]; 2.5 μM): 75.21 ± 2.20%
IL-6 production, Inhibitory ratio (%) ([6]; 2.5 μM): 24.79%
IL-6 production (relative % comparing with LPS treatment group) ([6]; 5 μM): 71.34 ± 5.75%
IL-6 production, Inhibitory ratio (%) ([6]; 5 μM): 28.66%
IL-6 production (relative % comparing with LPS treatment group) ([6]; 10 μM): 51.13 ± 2.31%
IL-6 production, Inhibitory ratio (%) ([6]; 10 μM): 48.87%
IL-6 production (relative % comparing with LPS treatment group) ([6]; 20 μM): 39.25 ± 2.85%
IL-6 production, Inhibitory ratio (%) ([6]; 20 μM): 60.75%
level of produced IL-6 [6, 11]: reduced in a dose dependent manner
TNF-alpha production (relative % comparing with LPS treatment group) ([7]; 2.5 μM): 97.38 ± 0.58%
TNF-alpha production, Inhibitory ratio (%) ([7]; 2.5 μM): 2.62%
TNF-alpha production (relative % comparing with LPS treatment group) ([7]; 5 μM): 86.12 ± 1.14%
TNF-alpha production, Inhibitory ratio (%) ([7]; 5 μM): 13.88%
TNF-alpha production (relative % comparing with LPS treatment group) ([7]; 10 μM): 68.03 ± 2.51%
TNF-alpha production, Inhibitory ratio (%) ([7]; 10 μM): 31.97%
TNF-alpha production (relative % comparing with LPS treatment group) ([7]; 20 μM): 58.44 ± 3.50%
TNF-alpha production, Inhibitory ratio (%) ([7]; 20 μM): 41.56%
level of produced TNF-alpha [7, 11]: reduced in a dose dependent manner
IL-1beta production (relative % comparing with LPS treatment group) ([8]; 2.5 μM): 95.17 ± 3.68%
IL-1beta production, Inhibitory ratio (%) ([8]; 2.5 μM): 4.83%
IL-1beta production (relative % comparing with LPS treatment group) ([8]; 5 μM): 76.69 ± 3.40%
IL-1beta production, Inhibitory ratio (%) ([8]; 5 μM): 23.31%
IL-1beta production (relative % comparing with LPS treatment group) ([8]; 10 μM): 61.56 ± 3.18%
IL-1beta production, Inhibitory ratio (%) ([8]; 10 μM): 38.44%
IL-1beta production (relative % comparing with LPS treatment group) ([8]; 20 μM): 46.10 ± 2.51%
IL-1beta production, Inhibitory ratio (%) ([8]; 20 μM): 53.9%
level of produced IL-1beta [8, 11]: reduced in a dose dependent manner
LD50 at 14 days [9]: > 5000 mg/kg
